Entries after “also recorded” stand apart in the source; their conditions may differ. Marks after values point to notes of the source that are not given here.
Columns and labels:
[1] = test system: uterus and vagina of ovariectomized mice; test: Uterine and vaginal weight in ovariectomized mice treated or not with estrone (9 days oral); format: in vivo, BALB/c mice; conditions: for Inhibition of estrone-stimulated uterine weight / Inhibition of estrone-stimulated vaginal weight: 9 days, OVX mice + E1
Description: (St-Constant, Quebec, Canada) and housed 5 per cage in a temperature (23±1° C.)—and light (12 h light/day, lights on at 7:15)—controlled environment. The mice were fed rodent chow and tap water ad libitum. […] Ten mice were kept intact as controls. […] Compounds were dissolved in ethanol (4% final concentration) and administered in 0.4% methylcellulose. Mice in the intact and OVX control groups received the vehicle alone (4% ETOH-0.4% methylcellulose) during the 9-day period. The animals were killed by exsanguination at the abdominal aorta on the 11th morning following ovariectomy.

[2] = test system: MCF-7 cells; test: Proliferation of human breast cancer MCF-7 cells (DNA content); format: cell-based; conditions: MCF-7, Experiment 1
Description: The MCF-7 human breast adenocarcinoma cell line was derived from the pleural effusion of a patient. MCF-7 cells were used between passages 148 and 165 and subcultured weekly
Cells in their late logarithmic growth phase were harvested with 0.1% pancreatin (Sigma) and resuspended in the appropriate medium containing 50 ng bovine insulin/ml and 5% (v/v) FBS treated twice with dextran-coated charcoal to remove endogenous steroids. Cells were plated in 24-well Falcon plastic culture plates (2 cm^2/well) at the indicated density and allowed to adhere to the surface of the plates for 72 h. Thereafter, medium was replaced with fresh medium containing the indicated concentrations of compounds diluted from 1000×stock solutions in 99% redistilled ethanol in the presence or absence of E2. Control cells received only the ethanolic vehicle (0.1% EtOH,v/v). Cells were incubated for the specified time intervals with medium changes at 2-or 3-day intervals. Cell number was determined by measurement of DNA content.
Dose-response curves as well IC50 values were calculated using a weighted iterative nonlinear least-squares regression. All results are expressed as means±SEM.

[3] = test system: ovariectomized female rats; test: Prevention of bone loss, body fat, serum cholesterol and ALP, 26-week treatment of OVX rats (Example 5A, experiment 2); format: in vivo, Sprague-Dawley rats; conditions: 26 weeks
Description: (§1) Ten to twelve week-old female Sprague-Dawley rats (Crl:CD(SD)Br) (Charles River Laboratory, St-Constant, Canada) weighing approximately 220-270 g at start of treatment were used. The animals were acclimatized to the environmental conditions (temperature: 22±3° C.; humidity: 50±20%; 12-h light-12-h dark cycles, lights on at 07:15 h) for at least 1 week before starting the experiments. The animals were housed individually and were allowed free access to tap water and a pelleted certified rodent feed (Lab Diet 5002, Ralston Purina, St-Louis, Mo.). Experiments were conducted in an animal facility approved by the Canadian Council on Animal Care (CCAC) and the Association for Assessment and Accreditation of Laboratory Animal Care (AAALAC) in accordance with the CCAC Guide for Care and Use of Experimental Animals.
On day 1 of the study, the animals of the appropriate groups were bilaterally OVX under isoflurane anesthesia. Tested compounds were administered as suspension in 0.4% methylcellulose by oral gavage. Treatments were initiated on day 2 of the study and were performed once daily during 26 weeks. In both experiments, animals not receiving a test article were treated with the appropriate vehicle alone during the same period.
(§2) After 3 months (experiment 1) or 26 weeks (experiment 2) of treatment, individual rats under Isoflurane anesthesia had their whole body skeleton and lumbar spine scanned using dual energy x-ray absorptiometry (DEXA; QDR 4500A, Hologic, Waltham, Mass.) and a Regional High Resolution Scan software. The bone mineral density (BMD) of the lumbar spine (vertebrae L2 to L4) and the total body composition (fat percentage) were determined.
(§3) After 3 months (experiment 1) or 26 weeks (experiment 2) of treatment, blood samples were collected at the jugular vein from overnight fasted animals (under Isoflurane anesthesia). Samples were processed for serum preparation and frozen at −80° C. until assay. Serum cholesterol levels and alkaline phospatase activity (ALP) were determined using the Boehringer Mannheim Diagnostic Hitachi 911 Analyzer (Boehringer Mannheim Diagnostic Laboratory Systems).

[4] = test system: OVX rats having established osteopenia; test: Treatment of OVX rats having established osteopenia, 26 weeks (Example 5B): BMD, total body fat; format: in vivo, Sprague-Dawley rats; conditions: treatment started 10 weeks after OVX, 26 weeks daily
Description: as §1, with “Height” for “Ten”, “nine month-old” for “twelve week-old”, “Canada)” for “Canada) weighing approximately 220-270 g at start of treatment”, “used in this experiment.” for “used.”, “prior to” for “before starting”, “ovariectomy. Animals were bilaterally ovariectomized (OVX) under isoflurane anesthesia. Twenty animals were kept intact as control.” for “experiments.”
Treatments were initiated 10 weeks after the ovariectomy and were performed once daily during 26 weeks. Animals not receiving a test article were treated with the appropriate vehicle alone during the same period.
Prior to the OVX, prior to the first day treatment (10 weeks after OVX) and after 26 weeks of treatment, individual rats under Isoflurane anesthesia had their whole body skeleton, lumbar spine and right femur scanned using dual energy x-ray absorptiometry (DEXA; QDR 4500A, Hologic, Waltham, Mass.) and a Regional High Resolution Scan software. The bone mineral density (BMD) of the lumbar spine (vertebrae L2 to L4), femur and the total body composition (fat percentage) were determined.

[5] = test system: uterus and vagina of ovariectomized nude mice; test: Uterine, vaginal and body weight in the xenograft-bearing OVX nude mice (Example 1)
[6] = test system: bone metabolism in the rat; conditions: cited from earlier work
[7] = test system: ovariectomized female rats; test: Prevention of bone loss, body fat, serum cholesterol and ALP, 3-month treatment of OVX rats (Example 5A, experiment 1); format: in vivo, Sprague-Dawley rats; conditions: OVX rats, 3 months
Description: as §1
On day 1 of the study, the animals of the appropriate groups were bilaterally ovariectomized (OVX) under isoflurane anesthesia. […] Treatments were initiated on day 2 of the study and were performed once daily during 3 months.
as §2, §3

[8] = test system: ZR-75-1 breast tumor xenografts; test: Growth of human ZR-75-1 breast tumor xenografts in OVX nude mice supplemented with estrone (DHEA, EM-800; Example 1); conditions: OVX + E1; for Inhibition of E1-stimulated ZR-75-1 tumor size / Inhibition of terminal tumor weight / Average tumor weight: 9.5 months
[9] = test system: bone metabolism in the rat; test: Biochemical parameters of bone metabolism (urine, serum) after DHEA and/or EM-800; format: in vivo; conditions: DHEA 10 mg, EM-800 75 μg
Text: Data are expressed as the means±SEM.**: P<0.01 experimental versus respective control.
It is particularly important to indicate that the combination of DHEA and EM-800 exerted unexpected beneficial effects on important biochemical parameters of bone metabolism. […] Moreover, no effect of DHEA could be detected on daily urinary calcium or phosphorus excretion (Luo et al., Endocrinology 138: 4435-4444, 1997). EM-800, decreased the urinary hydroxyproline/creatinine ratio by 48% while, similarly to DHEA, no effect of EM-800 was seen on urinary calcium or phosphorus excretion. EM-800, moreover, had no effect on serum alkaline phosphatase activity, a marker of bone formation while DHEA increased the value of the parameter by about 75% (Luo et al., Endocrinology 138: 4435-4444, 1997).

[10] = OVX + ERA-923 3 μg (no estrone)
[11] = OVX + ERA-923 30 μg (no estrone)
[12] = alone, absence of estrone, both doses used
[13] = OVX rats, Premarin 0.25 mg/kg, SERMs 2.5 mg/kg oral
[14] = E2 1 mg/kg, EM-652.HCl 2.5 mg/kg, DHEA 80 mg/kg
[15] = DHEA 0.3 mg (alone or with EM-800 15 μg)
[16] = DHEA 1.0 mg (alone or with EM-800 15 μg)
[17] = DHEA 3.0 mg (alone or with EM-800 15 μg)

SMILES: Cc1c(-c2ccc(O)cc2)n(Cc2ccc(OCCN3CCCCC3)cc2)c2ccc(O)cc12 [ERA-923]
- Inhibition of estrone-stimulated uterine weight ([1]; 1 μg daily oral): 12%
- Inhibition of estrone-stimulated uterine weight ([1]; 3 μg daily oral): 47%
- Inhibition of estrone-stimulated vaginal weight ([1]; 3 μg daily oral): 16%
- Inhibition of estrone-stimulated uterine weight ([1]; 10 μg daily oral): 74%
- Inhibition of estrone-stimulated vaginal weight ([1]; 10 μg daily oral): 56%
- Inhibition of estrone-stimulated uterine weight ([1]; 30 μg daily oral): 94%
- Inhibition of estrone-stimulated vaginal weight ([1]; 30 μg daily oral): 93%
- Uterine weight ([1]; OVX + E1 + ERA-923 1 μg): 105.5 ± 6.1 mg
- Vaginal weight ([1]; OVX + E1 + ERA-923 1 μg): 54.2 ± 3.0 mg
- Uterine weight ([1]; OVX + E1 + ERA-923 3 μg): 69.7 ± 4.4 mg
- Vaginal weight ([1]; OVX + E1 + ERA-923 3 μg): 47.2 ± 1.6 mg
- Uterine weight ([1]; OVX + E1 + ERA-923 10 μg): 42.1 ± 2.7 mg
- Vaginal weight ([1]; OVX + E1 + ERA-923 10 μg): 31.1 ± 2.3 mg
- Uterine weight ([1]; OVX + E1 + ERA-923 30 μg): 21.7 ± 1.7 mg
- Vaginal weight ([1]; OVX + E1 + ERA-923 30 μg): 16.7 ± 1.8 mg
- Uterine weight [1, 10]: 18.3 ± 1.2 mg
- Vaginal weight [1, 10]: 14.1 ± 1.2 mg
- Uterine weight [1, 11]: 17.7 ± 1.6 mg
- Vaginal weight [1, 11]: 15.3 ± 2.0 mg
- Stimulatory effect on uterine weight [1, 12]: no significant stimulatory effect
- Stimulatory effect on vaginal weight [1, 12]: no significant stimulatory effect
- IC50 ([2]; Homo sapiens, MCF7, read-out: Inhibition of 1nM E2 stimulation of DNA by tested compounds IC50): 3.68 nM
- Maximal stimulation of DNA by tested compounds [2]: N.S.
- Reversal of the fat increase induced by estrogen deficiency ([3]; OVX rats): 75%
- Serum ALP ([3]; OVX rats): 85 ± 6 IU
- Serum cholesterol ([3]; OVX rats): 1.15 ± 0.05 mmol/L
- Total fat ([3]; OVX rats): 28.0 ± 1.8 %
- Lumbar spine BMD [3, 13]: 0.2252 ± 0.0058 g/cm^2
- Lumbar spine, Prevention of Bone Loss [3, 13]: 49%
- OVX-induced increase on serum cholesterol levels ([3]; alone or in combination with Premarin): completely prevented

SMILES: C[C@]12CC[C@H](O)CC1=CC[C@@H]1[C@@H]2CC[C@]2(C)C(=O)CC[C@@H]12 [DHEA, dehydroepiandrosterone, reference compound]
- Femoral BMD [4]: completely prevented the further decrease
- Lumbar spine BMD [4]: completely prevented the further decrease
- Total body fat [4]: prevented the 17% increase
- Effect on body weight adjusted for tumor weight ([5]; 9.5 months): No significant effect
- Effect on estrone-stimulated vaginal weight ([5]; addition of DHEA to estrone): had no significant effect
- Inhibition of the stimulatory effect of estrone on uterine weight ([5]; highest dose of DHEA used): 26%
- Decrease of urinary hydroxyproline/creatinine ratio [6]: did not affect; also recorded: did not show any effect
- Effect on daily urinary calcium or phosphorus excretion [6]: no effect
- Increase of serum alkaline phosphatase activity [6]: about 75%
- Serum ALP [7]: 224±18 IU/L
- Serum cholesterol [7]: 1.59 ± 0.10 mmol/L
- Total fat [7]: 17.3 ± 1.5 %
- Lumbar spine BMD [7, 14]: 0.2321 ± 0.0034 g/cm^2
- Lumbar spine, Prevention of Bone Loss [7, 14]: 43%
- Inhibition of E1-stimulated ZR-75-1 tumor size ([8]; DHEA 0.3 mg percutaneous): 50.4%
- Inhibition of terminal tumor weight ([8]; DHEA 0.3 mg): 67%
- Inhibition of E1-stimulated ZR-75-1 tumor size ([8]; DHEA 1.0 mg percutaneous): 76.8%
- Inhibition of terminal tumor weight ([8]; DHEA 1.0 mg): 82%
- Inhibition of E1-stimulated ZR-75-1 tumor size ([8]; DHEA 3.0 mg percutaneous): 80.0%
- Inhibition of terminal tumor weight ([8]; DHEA 3.0 mg): 85%
- Category of response: Partial [8, 15]: 0 (0) Number and (%)
- Average tumor weight [8, 15]: 0.37 ± 0.12 g
- Category of response: Partial [8, 16]: 0 (0) Number and (%)
- Average tumor weight [8, 16]: 0.20 ± 0.06 g
- Category of response: Partial [8, 17]: 0 (0) Number and (%)
- Average tumor weight [8, 17]: 0.17 ± 0.06 g
- Serum tALP [9]: 198.38 ± 30.76* IU/L
- Urine HP/Cr [9]: 14.02 ± 1.59 μmol/mmol
- Urine calcium [9]: 25.87 ± 3.54 μmol/24h/100g
- Urine phosphorus [9]: 151.41 ± 14.57 μmol/24h/100g
